Consider seven compounds from ChEMBL document CHEMBL1135043, “A neural network based virtual screening of cytochrome P450 3A4 inhibitors” (Bioorg Med Chem Lett, 2002).

In this series the target is Cytochrome P450 3A4 (Homo sapiens, UniProt P08684). The experiment in a line: Inhibition of cytochrome P450 3A4.
Cytochrome P450 3A4, sequence (P08684 whole entry): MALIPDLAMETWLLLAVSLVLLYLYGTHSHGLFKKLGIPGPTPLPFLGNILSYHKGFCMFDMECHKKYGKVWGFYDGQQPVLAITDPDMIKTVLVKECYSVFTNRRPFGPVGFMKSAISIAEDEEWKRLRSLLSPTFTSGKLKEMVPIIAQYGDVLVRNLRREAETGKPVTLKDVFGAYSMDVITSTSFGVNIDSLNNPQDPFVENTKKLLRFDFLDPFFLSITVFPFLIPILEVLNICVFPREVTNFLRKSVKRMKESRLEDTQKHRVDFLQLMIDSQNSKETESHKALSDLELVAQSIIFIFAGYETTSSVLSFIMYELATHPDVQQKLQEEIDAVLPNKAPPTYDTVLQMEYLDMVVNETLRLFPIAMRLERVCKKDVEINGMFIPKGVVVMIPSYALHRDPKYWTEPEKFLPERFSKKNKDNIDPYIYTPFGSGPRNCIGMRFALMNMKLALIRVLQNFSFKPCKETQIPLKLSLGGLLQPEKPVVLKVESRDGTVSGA
`CN1CCC(c2c[nH]c3ccc(NC(=O)c4ccc(F)cc4)cc23)CC1` showed an Inhibitory index of 0.8.
With `COc1ccccc1CN(CC(Cc1c[nH]c2ccccc12)NC(=O)CN1CCC(N2CCCCC2)CC1)C(C)=O` (configuration not stated), the Inhibitory index turned out to be 0.86.
`O[C@@H](COc1cccc2ncccc12)CN1CCN([C@@H]2c3ccccc3[C@@H]3[C@H](c4ccccc42)C3(F)F)CC1` returned an Inhibitory index of 0.88.
As to `OC(COc1cccc2ncccc12)CN1CCN(C2c3ccccc3C3CC3c3ccccc32)CC1` (configuration not stated), the Inhibitory index is listed as 0.88.
As for `COCCCOc1ccnc(C[S+]([O-])c2nc3ccccc3[nH]2)c1C` (configuration not stated) [RABEPRAZOLE], the Inhibitory index is 0.82.
`CC(C)(C)c1cc(CC2SCNC2=O)cc(C(C)(C)C)c1O` (configuration not stated) [TAZOFELONE] yielded an Inhibitory index of 0.39.
With `CN1[C@@H]2CC[C@H]1C[C@@H](NC(=O)c1cc(Cl)cc3c1OC(C)(C)C3)C2` [ZATOSETRON] the figure was 0.8.
